Measurements as given in patent US20160030415A1, “TREATMENT AND PROPHYLAXIS OF KIDNEY DISEASES” (priority 2013, published 2016).

Tested on: STZ induced diabetic nephropathy in rats
Assay: Study 4: HCQ and its combination with Losartan, Telmisartan, Azilsartan and Ramipril, with Glimepiride control
Type: in vivo, Wistar rats
Conditions: for HDL / TC / TG / GSH / TBARS / Total protein kidney / Creatinine / Total protein / Urea: after 8th week; for Glucose Day1 / Glucose Day14 / Glucose Day28 / Glucose Day42 / Glucose Day56: blood; for GSH / TBARS / Total protein kidney: kidney homogenate; for Creatinine / Total protein / Urea: serum
Method: The methods described in Terri et al, Diabetes Volume, 1997, 46:1612-1618, and Takashi et al, Jpn J. Pharmacol, 1997, 75, 59-64, were followed for inducing Diabetes in rats by injecting Streptozotocin. The Efficacy of the drugs was tested in two different models, one involving comparison with diabetic control (i.e. Diabetic Rats not treated with any medication) and the other involving comparison with the anti-diabetic control group (i.e. Diabetic rats administered Glimepiride) in two separate studies.
Wistar rats of either sex weighing 150-200 g were divided randomly into 28 groups consisting of 6 animals each. Diabetes was induced in rats by single administration of streptozotocin (55 mg/kg/i.p) dissolved in 0.1 M-citrate buffer, pH 4.5. Group 1 (normal control) consisted of normal rats that neither received streptozotocin nor any test drug; Group 2 served as Diabetic control; Group 3 was diabetic rats treated with Hydroxychloroquine (35 mg/kg); Group 4 was diabetic rats treated with Hydroxychloroquine (45 mg/kg) and Group 5 was diabetic rats treated with Hydroxychloroquine (70 mg/kg); Group 6 was diabetic rats treated with Losartan (5.5 mg/kg); Group 7 was diabetic rats treated with Losartan (11 mg/kg); Group 8 was diabetic rats treated with combination of Losartan (5.5 mg/kg) and Hydroxychloroquine (45 mg/kg); Group 9 was diabetic rats treated with combination of Losartan (11 mg/kg) and Hydroxychloroquine (35 mg/kg); Group 10 was diabetic rats treated with Ramipril (0.6 mg/kg); Group 11 was diabetic rats treated with Ramipril (0.3 mg/kg); Group 12 was diabetic rats treated with combination of Ramipril (0.6 mg/kg) and Hydroxychloroquine (35 mg/kg); Group 13 was diabetic rats treated with combination of Ramipril (0.3 mg/kg) and Hydroxychloroquine (45 mg/kg); Group 14 was diabetic rats treated with combination of Ramipril (0.6 mg/kg) and Hydroxychloroquine (45 mg/kg); Group 15 was diabetic rats treated with combination of Ramipril (0.3 mg/kg) and Hydroxychloroquine (35 mg/kg); Group 16 was diabetic rats treated with Telmisartan (9.5 mg/kg); Group 17 was diabetic rats treated with Telmisartan (4.5 mg/kg); Group 18 was diabetic rats treated with combination of Telmisartan (9.5 mg/kg) and Hydroxychloroquine (35 mg/kg); Group 19 was diabetic rats treated with combination of Telmisartan (4.5 mg/kg) and Hydroxychloroquine (45 mg/kg); Group 20 was diabetic rats treated with combination of Telmisartan (9.5 mg/kg) and Hydroxychloroquine (45 mg/kg); Group 21 was diabetic rats treated with combination of Telmisartan (4.5 mg/kg) and Hydroxychloroquine (35 mg/kg); Group 22 was diabetic rats treated with Azilsartan (4.5 mg/kg); Group 23 was diabetic rats treated with Azilsartan (2.5 mg/kg); Group 24 was diabetic rats treated with combination of Azilsartan (4.5 mg/kg) and Hydroxychloroquine (35 mg/kg); Group 25 was diabetic rats treated with combination of Azilsartan (2.5 mg/kg) and Hydroxychloroquine (45 mg/kg); Group 26 was diabetic rats treated with combination of Azilsartan (4.5 mg/kg) and Hydroxychloroquine (45 mg/kg); Group 27 was diabetic rats treated with combination of Azilsartan (2.5 mg/kg) and Hydroxychloroquine (35 mg/kg); Group 28 served as Anti-Diabetic control wherein diabetic rats were treated with antidiabetic drug Glimepiride (GLM) (1 mg/kg).
The study drugs were dissolved/suspended in vehicle and administered orally once a day for eight weeks. The diabetes mellitus induced nephropathy was assessed by estimating the level of serum urea, serum creatinine and total serum protein content after completion of eighth week of study. TBARS, GSH and Total Protein were measured as markers of renal oxidative stress in Kidney Homogenate after completion of eighth week of study. Blood glucose levels were also assessed at weekly interval.

[1] = dose mg/kg: HCQ 35, LT 5.5, RM 0.3, TL 4.5, AZ 2.5, alone or combined with HCQ 35
[2] = dose mg/kg: HCQ 45, LT 11, RM 0.6, TL 9.5, AZ 4.5, alone or combined with HCQ 45

CCOc1nc2cccc(C(=O)O)c2n1Cc1ccc(-c2ccccc2-c2nc(=O)o[nH]2)cc1 [Azilsartan]
HDL [1]: 27.17 ± 1.17 mg/dL | TC [1]: 142 ± 2.1 mg/dL | TG [1]: 97 ± 5.66 mg/dL | HDL [2]: 26.67 ± 1.51 mg/dL | TC [2]: 141.17 ± 2.32 mg/dL | TG [2]: 103 ± 3.9 mg/dL | Glucose Day1 [1]: 267.17 ± 12.21 mg/dL | Glucose Day1 [2]: 278.5 ± 14.22 mg/dL | Glucose Day14 [1]: 215.5 ± 14.01 mg/dL | Glucose Day14 [2]: 224.17 ± 17.93 mg/dL | Glucose Day28 [1]: 180 ± 8.00 mg/dL | Glucose Day28 [2]: 179 ± 7.13 mg/dL | Glucose Day42 [1]: 160.67 ± 6.12 mg/dL | Glucose Day42 [2]: 158.67 ± 6.77 mg/dL | Glucose Day56 [1]: 141 ± 6.924 mg/dL | Glucose Day56 [2]: 139.83 ± 4.79 mg/dL | GSH [1]: 0.86 ± 0.21 nM/mg | TBARS [1]: 0.6 ± 0.11 nM/mg | Total protein kidney [1]: 874.5 ± 21.80 µg/mL | GSH [2]: 1.26 ± 0.44 nM/mg | TBARS [2]: 0.58 ± 0.14 nM/mg | Total protein kidney [2]: 837.5 ± 20.15 µg/mL | Creatinine [1]: 3.61 ± 0.16 mg/dL | Total protein [1]: 4.76 ± 0.15 g/dL | Urea [1]: 40.83 ± 2.64 mg/dL | Creatinine [2]: 3.44 ± 0.28 mg/dL | Total protein [2]: 4.99 ± 0.25 g/dL | Urea [2]: 41 ± 3.58 mg/dL

CCN(CCO)CCCC(C)Nc1ccnc2cc(Cl)ccc12 (stereo not drawn) [Hydroxychloroquine, 2-[{4-[(7-chloroquinolin-4-yl)amino]pentyl}(ethyl)amino]ethanol]
HDL [1]: 29.5 ± 2.17 mg/dL | TC [1]: 133.5 ± 3.62 mg/dL | TG [1]: 94.83 ± 2.48 mg/dL | HDL [2]: 29 ± 2.19 mg/dL | TC [2]: 130.33 ± 2.07 mg/dL | TG [2]: 96.83 ± 2.93 mg/dL | HDL (dose mg/kg: HCQ 70, GLM 1): 30.67 ± 1.86 mg/dL | TC (dose mg/kg: HCQ 70, GLM 1): 124.67 ± 2.94 mg/dL | TG (dose mg/kg: HCQ 70, GLM 1): 90.17 ± 3.49 mg/dL | Glucose Day1 [1]: 268.83 ± 17.77 mg/dL | Glucose Day1 [2]: 277.5 ± 17.74 mg/dL | Glucose Day1 (dose mg/kg: HCQ 70, GLM 1): 274.5 ± 16.01 mg/dL | Glucose Day14 [1]: 203.33 ± 28.11 mg/dL | Glucose Day14 [2]: 229.17 ± 10.38 mg/dL | Glucose Day14 (dose mg/kg: HCQ 70, GLM 1): 209.67 ± 21.69 mg/dL | Glucose Day28 [1]: 176.83 ± 29.1 mg/dL | Glucose Day28 [2]: 184.17 ± 14.5 mg/dL | Glucose Day28 (dose mg/kg: HCQ 70, GLM 1): 169.5 ± 10.48 mg/dL | Glucose Day42 [1]: 165 ± 13.61 mg/dL | Glucose Day42 [2]: 154.17 ± 9.13 mg/dL | Glucose Day42 (dose mg/kg: HCQ 70, GLM 1): 148.67 ± 8.5 mg/dL | Glucose Day56 [1]: 151.5 ± 7.42 mg/dL | Glucose Day56 [2]: 140 ± 7.56 mg/dL | Glucose Day56 (dose mg/kg: HCQ 70, GLM 1): 130.83 ± 7.22 mg/dL | GSH [1]: 0.71 ± 0.16 nM/mg | TBARS [1]: 0.67 ± 0.11 nM/mg | Total protein kidney [1]: 865.33 ± 27.9 µg/mL | GSH [2]: 0.7 ± 0.17 nM/mg | TBARS [2]: 0.65 ± 0.13 nM/mg | Total protein kidney [2]: 831.67 ± 24.15 µg/mL | GSH (dose mg/kg: HCQ 70, GLM 1): 0.67 ± 0.19 nM/mg | TBARS (dose mg/kg: HCQ 70, GLM 1): 0.63 ± 0.12 nM/mg | Total protein kidney (dose mg/kg: HCQ 70, GLM 1): 752.33 ± 18.8 µg/mL | Creatinine [1]: 3.11 ± 0.16 mg/dL | Total protein [1]: 4.52 ± 0.39 g/dL | Urea [1]: 44.33 ± 1.75 mg/dL | Creatinine [2]: 2.99 ± 0.34 mg/dL | Total protein [2]: 5.4 ± 0.36 g/dL | Urea [2]: 40.83 ± 2.14 mg/dL | Creatinine (dose mg/kg: HCQ 70, GLM 1): 2.68 ± 0.23 mg/dL | Total protein (dose mg/kg: HCQ 70, GLM 1): 5.72 ± 0.3 g/dL | Urea (dose mg/kg: HCQ 70, GLM 1): 38.17 ± 1.47 mg/dL

CCCCc1nc(Cl)c(CO)n1Cc1ccc(-c2ccccc2-c2nn[nH]n2)cc1 [Losartan]
HDL [1]: 27.5 ± 1.64 mg/dL | TC [1]: 143.5 ± 3.39 mg/dL | TG [1]: 100 ± 5.4 mg/dL | HDL [2]: 28.5 ± 2.88 mg/dL | TC [2]: 139.83 ± 3.19 mg/dL | TG [2]: 98.83 ± 3.66 mg/dL | Glucose Day1 [1]: 262.5 ± 25.35 mg/dL | Glucose Day1 [2]: 268.67 ± 15.63 mg/dL | Glucose Day14 [1]: 211.17 ± 21.48 mg/dL | Glucose Day14 [2]: 215.67 ± 18.13 mg/dL | Glucose Day28 [1]: 179.33 ± 7.84 mg/dL | Glucose Day28 [2]: 178 ± 7.92 mg/dL | Glucose Day42 [1]: 161.17 ± 4.71 mg/dL | Glucose Day42 [2]: 152.17 ± 7.28 mg/dL | Glucose Day56 [1]: 146.33 ± 6.65 mg/dL | Glucose Day56 [2]: 139 ± 10.92 mg/dL | GSH [1]: 0.56 ± 0.23 nM/mg | TBARS [1]: 0.74 ± 0.1 nM/mg | Total protein kidney [1]: 893.33 ± 29.92 µg/mL | GSH [2]: 0.66 ± 0.23 nM/mg | TBARS [2]: 0.63 ± 0.17 nM/mg | Total protein kidney [2]: 829.67 ± 25.45 µg/mL | Creatinine [1]: 3.36 ± 0.32 mg/dL | Total protein [1]: 4.91 ± 0.2 g/dL | Urea [1]: 39.83 ± 1.72 mg/dL | Creatinine [2]: 3.26 ± 0.38 mg/dL | Total protein [2]: 5.32 ± 0.2 g/dL | Urea [2]: 41 ± 2.53 mg/dL

CCOC(=O)[C@H](CCc1ccccc1)N[C@@H](C)C(=O)N1[C@H](C(=O)O)C[C@@H]2CCC[C@@H]21 [Ramipril]
HDL [1]: 27.17 ± 1.47 mg/dL | TC [1]: 138.33 ± 2.94 mg/dL | TG [1]: 100.17 ± 5 mg/dL | HDL [2]: 27.33 ± 1.63 mg/dL | TC [2]: 142.17 ± 3.31 mg/dL | TG [2]: 98.5 ± 4.93 mg/dL | Glucose Day1 [1]: 281.5 ± 18.2 mg/dL | Glucose Day1 [2]: 260 ± 17.19 mg/dL | Glucose Day14 [1]: 216.17 ± 21.48 mg/dL | Glucose Day14 [2]: 203 ± 14.07 mg/dL | Glucose Day28 [1]: 174.17 ± 9.06 mg/dL | Glucose Day28 [2]: 174.33 ± 8.91 mg/dL | Glucose Day42 [1]: 158.5 ± 9.07 mg/dL | Glucose Day42 [2]: 157.67 ± 9.18 mg/dL | Glucose Day56 [1]: 145.33 ± 6.38 mg/dL | Glucose Day56 [2]: 141.67 ± 5.47 mg/dL | GSH [1]: 1.16 ± 0.62 nM/mg | TBARS [1]: 0.67 ± 0.1 nM/mg | Total protein kidney [1]: 835.33 ± 22.27 µg/mL | GSH [2]: 1.16 ± 0.59 nM/mg | TBARS [2]: 0.62 ± 0.15 nM/mg | Total protein kidney [2]: 810 ± 17.12 µg/mL | Creatinine [1]: 3.37 ± 0.32 mg/dL | Total protein [1]: 4.76 ± 0.28 g/dL | Urea [1]: 41.33 ± 1.97 mg/dL | Creatinine [2]: 3.68 ± 0.24 mg/dL | Total protein [2]: 4.77 ± 0.21 g/dL | Urea [2]: 41 ± 1.79 mg/dL
